Data from US8952024B2, “Herbicidal pyrimidone derivatives” (E I du Pont de Nemours and Company, priority 2009, dated 2015).

What was measured:
Format in all cases: in vivo
[1] = test system: barnyardgrass (Echinochloa crus-galli); assay: Test A pre-/postemergence plant response
Outline: (§1)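 Visually rated 0–100 injury (100 = complete control) versus untreated plants, ~10 days in greenhouse. Application pre- (soil spray, loam/sand) and postemergence (2–10 cm, 1–2 leaf stage), same timepoint.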

corn (Zea mays) = assay: Test A pre-/postemergence plant response
Outline: as §1

[2] = test system: giant foxtail (Setaria faberii); assay: Test A pre-/postemergence plant response
Outline: as §1

[3] = test system: large crabgrass (Digitaria sanguinalis); assay: Test A pre-/postemergence plant response
Outline: as §1

[4] = test system: morningglory (Ipomoea spp.); assay: Test A pre-/postemergence plant response
Outline: as §1

[5] = test system: pigweed (Amaranthus retroflexus); assay: Test A pre-/postemergence plant response
Outline: as §1

[6] = test system: velvetleaf (Abutilon theophrasti); assay: Test A pre-/postemergence plant response
Outline: as §1

[7] = test system: wheat (Triticum aestivum); assay: Test A pre-/postemergence plant response
Outline: as §1

[8] = test system: bermudagrass (Cynodon dactylon); assay: Test B pre-/postemergence plant response
Outline: (§2)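 Response scores were assigned visually after 13 to 15 days in a greenhouse, comparing treated pots with controls on a 0–100 scale where 100 denotes complete control. Preemergence treatments went onto freshly seeded loam/sand soil; postemergence treatments onto plants 2 to 18 cm tall.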

[9] = test system: cocklebur (Xanthium strumarium); assay: Test B pre-/postemergence plant response
Outline: as §2

[10] = test system: wheat (Triticum aestivum); assay: Test B pre-/postemergence plant response
Outline: as §2

[11] = Postemergence, 125 g ai/ha, visual injury, 0 to 100 scale (0 no effect, 100 complete control), approx. ten days
[12] = Postemergence, 500 g ai/ha, 0 to 100 scale, 0 = no effect, 100 = complete control, approx. ten days
[13] = Preemergence, 125 g ai/ha, 0 to 100 scale, 0 = no effect, 100 = complete control
[14] = Preemergence, 500 g ai/ha, visual injury, 0 to 100 scale (0 no effect, 100 complete control), approx. ten days
[15] = 250 g ai/ha, Preemergence, 0 to 100 scale
[16] = Postemergence, 31 g ai/ha, scale 0 to 100 (0 no effect, 100 complete control)
[17] = Postemergence, 62 g ai/ha, scale 0 (no effect) to 100 (complete control), 13 to 15 days
[18] = Postemergence, 125 g ai/ha, visual rating after 13 to 15 days, scale 0 (no effect) to 100 (complete control)
[19] = Postemergence, 250 g ai/ha, scale 0 to 100
[20] = Preemergence, 31 g ai/ha, scale 0 to 100 (0 no effect, 100 complete control)
[21] = Preemergence, 62 g ai/ha, scale 0 to 100, 0 no effect, 100 complete control
[22] = Preemergence, 125 g ai/ha, 0 to 100 scale
[23] = 31 g ai/ha, postemergence, scale 0 to 100, 0 is no effect, 100 is complete control
[24] = Postemergence, 250 g ai/ha, scale 0 to 100 (0 no effect, 100 complete control)
[25] = Preemergence, 125 g ai/ha, scale 0 to 100, 0 no effect, 100 complete control
[26] = Postemergence, 125 g ai/ha, 0 to 100 scale where 0 is no effect and 100 is complete control
[27] = Postemergence, 500 g ai/ha, visual injury, 0 to 100 scale (0 no effect, 100 complete control), approx. ten days
[28] = Preemergence, 500 g ai/ha, 0 to 100 scale, 0 = no effect, 100 = complete control
[29] = Postemergence, 31 g ai/ha, 0 to 100 scale (0 no effect, 100 complete control)
[30] = Postemergence, 125 g ai/ha, scale 0 to 100 (0 no effect, 100 complete control)
[31] = Postemergence, 250 g ai/ha, scale 0 to 100 (0 no effect, 100 complete control), 13 to 15 days

Cc1cc(F)ccc1-n1c(-c2ccccc2)ncc(C(=O)C2=C(O)CCCC2=O)c1=O [Compound 48]
Barnyardgrass plant response rating [1, 11]: 80
Plant response rating, Barnyardgrass [1, 12]: 90
Plant response rating, Barnyardgrass [1, 13]: 20
Plant response rating, Barnyardgrass [1, 14]: 100
Corn plant response rating (corn (Zea mays); [11]): 0
Plant response rating, Corn (corn (Zea mays); [12]): 30
Plant response rating, Corn (corn (Zea mays); [13]): 0
Plant response rating, Corn (corn (Zea mays); [14]): 0
Foxtail, Giant plant response rating [2, 11]: 90
Plant response rating, Foxtail, Giant [2, 12]: 100
Plant response rating, Foxtail, Giant [2, 13]: 70
Plant response rating, Foxtail, Giant [2, 14]: 90
Crabgrass, Large plant response rating [3, 11]: 90
Plant response rating, Crabgrass, Large [3, 12]: 100
Plant response rating, Crabgrass, Large [3, 13]: 90
Plant response rating, Crabgrass, Large [3, 14]: 100
Morningglory plant response rating [4, 11]: 90
Plant response rating, Morningglory [4, 12]: 100
Plant response rating, Morningglory [4, 13]: 40
Plant response rating, Morningglory [4, 14]: 80
Pigweed plant response rating [5, 11]: 100
Plant response rating, Pigweed [5, 12]: 100
Plant response rating, Pigweed [5, 13]: 90
Plant response rating, Pigweed [5, 14]: 100
Velvetleaf plant response rating [6, 11]: 100
Plant response rating, Velvetleaf [6, 12]: 100
Plant response rating, Velvetleaf [6, 13]: 80
Plant response rating, Velvetleaf [6, 14]: 100
Wheat plant response rating [7, 11]: 0
Plant response rating, Wheat [7, 12]: 20
Plant response rating, Wheat [7, 13]: 0
Plant response rating, Wheat [7, 14]: 0
Plant response rating, Bermudagrass [8, 15]: 100
Plant response rating, Bermudagrass [8, 16]: 85
Plant response rating, Bermudagrass [8, 17]: 95
Plant response rating, Bermudagrass [8, 18]: 98
Bermudagrass plant response rating [8, 19]: 100
Plant response rating, Bermudagrass [8, 20]: 100
Plant response rating, Bermudagrass [8, 21]: 100
Bermudagrass plant response rating [8, 22]: 100
Plant response rating, Cocklebur [9, 15]: 85
Plant response rating, Cocklebur [9, 16]: 95
Plant response rating, Cocklebur [9, 17]: 95
Plant response rating, Cocklebur [9, 18]: 98
Cocklebur plant response rating [9, 19]: 98
Plant response rating, Cocklebur [9, 21]: 0
Cocklebur plant response rating [9, 22]: 0
Plant response rating, Wheat [10, 15]: 0
Plant response rating, Wheat [10, 17]: 0
Plant response rating, Wheat [10, 18]: 10
Plant response rating, Wheat [10, 20]: 0
Wheat plant response rating [10, 22]: 0

Cc1ccc(Cl)cc1-n1c(-c2ccccc2)ncc(C(=O)C2=C(O)CCCC2=O)c1=O [Compound 52]
Barnyardgrass plant response rating [1, 11]: 90
Plant response rating, Barnyardgrass [1, 12]: 90
Plant response rating, Barnyardgrass [1, 13]: 40
Plant response rating, Barnyardgrass [1, 14]: 100
Corn plant response rating (corn (Zea mays); [11]): 0
Plant response rating, Corn (corn (Zea mays); [12]): 70
Plant response rating, Corn (corn (Zea mays); [13]): 0
Plant response rating, Corn (corn (Zea mays); [14]): 10
Foxtail, Giant plant response rating [2, 11]: 90
Plant response rating, Foxtail, Giant [2, 12]: 100
Plant response rating, Foxtail, Giant [2, 13]: 80
Plant response rating, Foxtail, Giant [2, 14]: 100
Crabgrass, Large plant response rating [3, 11]: 90
Plant response rating, Crabgrass, Large [3, 12]: 100
Plant response rating, Crabgrass, Large [3, 13]: 90
Plant response rating, Crabgrass, Large [3, 14]: 100
Morningglory plant response rating [4, 11]: 100
Plant response rating, Morningglory [4, 12]: 100
Plant response rating, Morningglory [4, 13]: 30
Plant response rating, Morningglory [4, 14]: 90
Pigweed plant response rating [5, 11]: 90
Plant response rating, Pigweed [5, 12]: 100
Plant response rating, Pigweed [5, 13]: 100
Plant response rating, Pigweed [5, 14]: 100
Velvetleaf plant response rating [6, 11]: 100
Plant response rating, Velvetleaf [6, 12]: 100
Plant response rating, Velvetleaf [6, 13]: 100
Plant response rating, Velvetleaf [6, 14]: 100
Wheat plant response rating [7, 11]: 0
Plant response rating, Wheat [7, 12]: 40
Plant response rating, Wheat [7, 13]: 0
Plant response rating, Wheat [7, 14]: 0
Plant response rating, Bermudagrass [8, 23]: 85
Plant response rating, Bermudagrass [8, 15]: 100
Plant response rating, Bermudagrass [8, 17]: 95
Plant response rating, Bermudagrass [8, 18]: 95
Plant response rating, Bermudagrass [8, 24]: 100
Plant response rating, Bermudagrass [8, 20]: 98
Plant response rating, Bermudagrass [8, 21]: 98
Plant response rating, Bermudagrass [8, 25]: 98
Plant response rating, Cocklebur [9, 23]: 75
Plant response rating, Cocklebur [9, 15]: 75
Plant response rating, Cocklebur [9, 17]: 85
Plant response rating, Cocklebur [9, 18]: 85
Plant response rating, Cocklebur [9, 24]: 85
Plant response rating, Cocklebur [9, 20]: 0
Plant response rating, Cocklebur [9, 21]: 0
Plant response rating, Cocklebur [9, 25]: 10
Plant response rating, Wheat [10, 23]: 15
Plant response rating, Wheat [10, 15]: 0
Plant response rating, Wheat [10, 17]: 25
Plant response rating, Wheat [10, 18]: 35
Plant response rating, Wheat [10, 24]: 35
Plant response rating, Wheat [10, 20]: 0
Plant response rating, Wheat [10, 21]: 0
Plant response rating, Wheat [10, 25]: 0

CCCn1c(-c2cc(Cl)cc(Cl)c2)ncc(C(=O)C2=C(O)CCCC2=O)c1=O [Compound 173]
Plant response rating, Barnyardgrass [1, 26]: 90
Barnyardgrass plant response rating [1, 27]: 100
Plant response rating, Barnyardgrass [1, 13]: 0
Plant response rating, Barnyardgrass [1, 28]: 60
Plant response rating, Corn (corn (Zea mays); [26]): 0
Corn plant response rating (corn (Zea mays); [27]): 20
Plant response rating, Corn (corn (Zea mays); [13]): 0
Plant response rating, Corn (corn (Zea mays); [28]): 10
Plant response rating, Foxtail, Giant [2, 26]: 70
Foxtail, Giant plant response rating [2, 27]: 90
Plant response rating, Foxtail, Giant [2, 13]: 20
Plant response rating, Foxtail, Giant [2, 28]: 40
Plant response rating, Crabgrass, Large [3, 26]: 70
Crabgrass, Large plant response rating [3, 27]: 90
Plant response rating, Crabgrass, Large [3, 13]: 40
Plant response rating, Crabgrass, Large [3, 28]: 100
Plant response rating, Morningglory [4, 26]: 100
Morningglory plant response rating [4, 27]: 100
Plant response rating, Morningglory [4, 13]: 0
Plant response rating, Pigweed [5, 26]: 100
Pigweed plant response rating [5, 27]: 100
Plant response rating, Pigweed [5, 13]: 50
Plant response rating, Pigweed [5, 28]: 90
Plant response rating, Velvetleaf [6, 26]: 100
Velvetleaf plant response rating [6, 27]: 100
Plant response rating, Velvetleaf [6, 13]: 70
Plant response rating, Velvetleaf [6, 28]: 100
Plant response rating, Wheat [7, 26]: 0
Wheat plant response rating [7, 27]: 60
Plant response rating, Wheat [7, 13]: 0
Plant response rating, Wheat [7, 28]: 20
Bermudagrass plant response rating (0 to 100 scale) ([8]; 62 g ai/ha, postemergence, 0 is no effect, 100 is complete control, 13 to 15 days): 98
Plant response rating, Bermudagrass [8, 29]: 98
Plant response rating, Bermudagrass [8, 30]: 100
Plant response rating, Bermudagrass [8, 31]: 100
Plant response rating, Cocklebur [9, 29]: 60
Plant response rating, Cocklebur [9, 30]: 100
Plant response rating, Cocklebur [9, 31]: 100
Plant response rating, Wheat [10, 29]: 10
Plant response rating, Wheat [10, 30]: 40
Plant response rating, Wheat [10, 31]: 50
